The test system of data set [1] is viable cells in culture. The data set is described as follows: Cell viability assay at 10 μM (CellTiter-Glo, Table VII).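 Further: graded A 0-20%; B 21-40%; C 41-60%; D over 60% viable cells relative to DMSO control.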 In kind it is cell-based. As to conditions: compound 10 μM, 72 h. As for the experimental part:
The CellTiter-Glo® Luminescent Cell Viability Assay (Promega Corporation. Madison, Wis., USA) is method a determining the number of viable cells in culture based on quantification of the ATP being present which is an indicator of metabolically active cells was used according to manufacturers protocol. In detail the assay was performed in a 96 well format were 1000 cells/well were incubated with compound at concentration 10 μM as well as DMSO control for 72 h in 100 μl cell culture medium. Percentage of inhibition was calculated compared to ATP amount of DMSO control.
In general terms: In ATP-based viability assays light output follows the ATP content of the culture.

Counter-ions that a name gives are not always drawn. Like-named read-outs stand apart in the source and are kept apart here.

Turning to `COc1cc2c(Oc3ccc(NS(=O)(=O)c4cc(F)ccc4F)cc3F)ccnc2cc1OCCCN` (as salt: hydrochloride) [Example 122, N-{4-[7-(3-Amino-propoxy)-6-methoxy-quinolin-4-yloxy]-3-fluoro-phenyl}-2,5-difluoro-benzenesulfonamide hydrochloride], the melting point – broadly, the temperature of the solid-liquid transition – is 188 to 190 °C.
On the same count and under the same terms, under `COc1cc2c(Oc3ccc(NS(=O)(=O)c4ccccc4F)cc3F)ccnc2cc1OCCCN1CCCCC1` [Example 2, 2-Fluoro-N-{3-fluoro-4-[6-methoxy-7-(3-piperidin-1-yl-propoxy)-quinolin-4-yloxy]-phenyl}-benzenesulfonamide] stands 214 to 216 °C.
As to `COc1cc2c(Oc3ccc(NS(=O)(=O)c4ccc(Cl)cc4F)cc3F)ccnc2cc1OCCCN1CCCCC1` [Example 3, 4-Chloro-2-fluoro-N-{3-fluoro-4-[6-methoxy-7-(3-piperidin-1-yl-propoxy)-quinolin-4-yloxy]-phenyl}-benzenesulfonamide], the melting point was in the range of 122 to 124 °C. In addition, the viability at 10 µM in data set [1] (Homo sapiens, HCT-116, HCT116 def, read-out: percentage (%) of viable cells HCT 116def) fell in the range of 0 to 20%. Besides, the viability at 10 µM in data set [1] (Homo sapiens, HCT-116, HCT116 wt, read-out: percentage (%) of viable cells HCT 116wt) was in the range of 0 to 20%. Besides, the viability at 10 µM in data set [1] (Homo sapiens, HT-29, HT29, read-out: percentage (%) of viable cells HT29) lay in the range of 0 to 20%. Moreover, the viability at 10 µM in data set [1] (Homo sapiens, NCI-H358, H358, read-out: percentage (%) of viable cells H358) lay in the range of 0 to 20%. Also, the viability at 10 µM in data set [1] (Homo sapiens, NCI-H1650, H1650, read-out: percentage (%) of viable cells H1650) lay within 41 to 60%. The viability at 10 µM in data set [1] (Homo sapiens, NCI-H1666, H1666, read-out: percentage (%) of viable cells H1666) is 41 to 60%. Also, the viability at 10 µM in data set [1] (Homo sapiens, NCI-H1975, H1975, read-out: percentage (%) of viable cells H1975) was in the range of 21 to 40%. For the same molecule, the viability at 10 µM in data set [1] (Homo sapiens, NCI-H1993, H1993, read-out: percentage (%) of viable cells H1993) is 21 to 40%. Besides, the viability at 10 µM in data set [1] (Homo sapiens, A549, read-out: percentage (%) of viable cells A549) lay in the range of 21 to 40%. For the same molecule, the viability at 10 µM in data set [1] (Homo sapiens, HCC827, read-out: percentage (%) of viable cells HCC827) was more than 60%. In data set [1] (Homo sapiens, SW480, read-out: percentage (%) of viable cells SW480), the viability at 10 µM is 0 to 20%. The viability at 10 µM in data set [1] (RKO, read-out: percentage (%) of viable cells RKO) lay within 0 to 20%.
`COc1cc2c(Oc3ccc(NS(=O)(=O)c4cccc(OC(F)F)c4)cc3F)ccnc2cc1OCCCN1CCN(C)CC1` [Example 30, 3-Difluoromethoxy-N-(3-fluoro-4-{6-methoxy-7-[3-(4-methyl-piperazin-1-yl)-propoxy]-quinolin-4-yloxy}-phenyl)-benzenesulfonamide]: the melting point was in the range of 95 to 97 °C.
On the same count and under the same terms, under `COc1cc2c(Oc3ccc(NS(=O)(=O)c4cccs4)cc3F)ccnc2cc1OCCCN1CCN(C)CC1` [Example 31, Thiophene-2-sulfonic acid (3-fluoro-4-{6-methoxy-7-[3-(4-methyl-piperazin-1-yl)-propoxy]-quinolin-4-yloxy}-phenyl)-amide] stands 201 to 202 °C; under `COc1cc2c(Oc3ccc(NS(=O)(=O)c4cccc(C(F)(F)F)c4)cc3F)ccnc2cc1OCCCN1CCCC(C)C1` (centres unmarked) [Example 39, ′N-(3-Fluoro-4-{6-methoxy-7-[3-(3-methyl-piperidin-1-yl)-propoxy]-quinolin-4-yloxy}-phenyl)-3-trifluoromethyl-benzenesulfonamide], 128 to 130 °C.
Same read-out and setting: under `COc1cccc(S(=O)(=O)Nc2ccc(Oc3ccnc4cc(OCCCN5CCCC(C)C5)c(OC)cc34)c(F)c2)c1` (centres unmarked) [Example 42, N-(3-Fluoro-4-{6-methoxy-7-[3-(3-methyl-piperidin-1-yl)-propoxy]-quinolin-4-yloxy}-phenyl)-3-methoxy-benzenesulfonamide] stands 172 to 174 °C; under `COc1cc2c(Oc3ccc(NS(=O)(=O)C4CC4)cc3F)ccnc2cc1OCCCN1CCCC(C)C1` (centres unmarked) [Example 60, Cyclopropanesulfonic acid (3-fluoro-4-{6-methoxy-7-[3-(3-methyl-piperidin-1-yl)-propoxy]-quinolin-4-yloxy}-phenyl)-amide], 158 to 160 °C; under `COc1cc2c(Oc3ccc(NS(=O)(=O)c4ccn(C)n4)cc3F)ccnc2cc1OCCCN1CCCC(C)C1` (centres unmarked) [Example 61, 1-Methyl-1H-pyrazole-3-sulfonic acid (3-fluoro-4-{6-methoxy-7-[3-(3-methyl-piperidin-1-yl)-propoxy]-quinolin-4-yloxy}-phenyl)-amide], 164 to 166 °C.
For the molecule `CCn1cc(S(=O)(=O)Nc2ccc(Oc3ccnc4cc(OCCCN5CCCC(C)C5)c(OC)cc34)c(F)c2)cn1` (centres unmarked) [Example 68, 1-Ethyl-1H-pyrazole-4-sulfonic acid (3-fluoro-4-{6-methoxy-7-[3-(3-methyl-piperidin-1-yl)-propoxy]-quinolin-4-yloxy}-phenyl)-amide], the melting point fell in the range of 152 to 154 °C.
Still for that read-out and setting: under `COc1cc2c(Oc3ccc(NS(=O)(=O)c4cccc(Cl)c4)cc3F)ccnc2cc1OCCCN1CCCC(C)C1` (centres unmarked) [Example 69, 3-Chloro-N-(3-fluoro-4-{6-methoxy-7-[3-(3-methyl-piperidin-1-yl)-propoxy]-quinolin-4-yloxy}-phenyl)-benzenesulfonamide] stands 110 to 112 °C.
The same measure, in the same setting: under `COc1cc2c(Oc3ccc(NS(=O)(=O)c4ccccc4OC)cc3F)ccnc2cc1OCCCN1CCCC(C)C1` (centres unmarked) [Example 71, N-(3-Fluoro-4-{6-methoxy-7-[3-(3-methyl-piperidin-1-yl)-propoxy]-quinolin-4-yloxy}-phenyl)-2-methoxy-benzenesulfonamide] stands 175 to 176 °C; under `COc1cc2c(Oc3ccc(NS(=O)(=O)/C=C/c4ccccc4)cc3F)ccnc2cc1OCCCN1CCCC(C)C1` (centres unmarked) [Example 73, 2-Phenyl-ethenesulfonic acid (3-fluoro-4-{6-methoxy-7-[3-(3-methyl-piperidin-1-yl)-propoxy]-quinolin-4-yloxy}-phenyl)-amide], 104 to 106 °C; under `COc1cc2c(Oc3ccc(NS(=O)(=O)c4cccc5cccnc45)cc3F)ccnc2cc1OCCCN1CCCC(C)C1` (centres unmarked) [Example 74, Quinoline-8-sulfonic acid (3-fluoro-4-{6-methoxy-7-[3-(3-methyl-piperidin-1-yl)-propoxy]-quinolin-4-yloxy}-phenyl)-amide], 190 to 191 °C.
`CCCCS(=O)(=O)Nc1ccc(Oc2ccnc3cc(OCCCN4CCOCC4)c(OC)cc23)c(F)c1` [Example 79, Butane-1-sulfonic acid {3-fluoro-4-[6-methoxy-7-(3-morpholin-4-yl-propoxy)-quinolin-4-yloxy]-phenyl}-amide] displayed a melting point of 98 to 100 °C.
Molecule `COc1cc2c(Oc3ccc(NS(=O)(=O)c4ccccc4C(F)(F)F)cc3F)ccnc2cc1OCCCNC(=O)NC(C)(C)C` [Example 98, N-(4-{7-[3-(3-tert-Butyl-ureido)-propoxy]-6-methoxy-quinolin-4-yloxy}-3-fluoro-phenyl)-2-trifluoromethyl-benzenesulfonamide] gave a melting point of 106 to 108 °C.
With `COc1cc2c(Oc3ccc(NS(=O)(=O)c4ccccc4OC)cc3F)ccnc2cc1OCCN1CCOCC1` [Example 103, N-{3-Fluoro-4-[6-methoxy-7-(2-morpholin-4-yl-ethoxy)-quinolin-4-yloxy]-phenyl}-2-methoxy-benzenesulfonamide], the melting point is 182 to 183 °C.
Turning to `COc1cc2c(Oc3ccc(NS(=O)(=O)c4cccs4)cc3F)ccnc2cc1OCCN1CCOCC1` [Example 105, Thiophene-2-sulfonic acid {3-fluoro-4-[6-methoxy-7-(2-morpholin-4-yl-ethoxy)-quinolin-4-yloxy]-phenyl}-amide], the melting point lay within 146 to 147 °C.
Still for that read-out and setting: under `COc1cc2c(Oc3ccc(NS(=O)(=O)c4ccn(C)n4)cc3F)ccnc2cc1OCCN1CCOCC1` [Example 107, 1-Methyl-1H-pyrazole-3-sulfonic acid {3-fluoro-4-[6-methoxy-7-(2-morpholin-4-yl-ethoxy)-quinolin-4-yloxy]-phenyl}-amide] stands 213 to 214 °C.
`COc1cc2c(Oc3cccc(NS(=O)(=O)c4cc(F)ccc4F)c3)ccnc2cc1OCCCN1CCN(C)CC1` [Example 123, 2,5-Difluoro-N-(3-{6-methoxy-7-[3-(4-methyl-piperazin-1-yl)-propoxy]-quinolin-4-yloxy}-phenyl)-benzenesulfonamide] came in with a melting point of 186 to 188 °C.
Still for that read-out and setting: then `COc1cc2c(Oc3ccc(NS(=O)(=O)c4ccccc4C(F)(F)F)c(F)c3)ccnc2cc1OCCCN1CCCC1` [Example 213, N-{2-Fluoro-4-[6-methoxy-7-(3-pyrrolidin-1-yl-propoxy)-quinolin-4-yloxy]-phenyl}-2-trifluoromethyl-benzenesulfonamide], with 152 to 156 °C; and `COc1cc2c(Oc3ccc(NS(=O)(=O)c4ccccc4C(F)(F)F)cc3F)ccnc2cc1OCCCCN1CCOCC1` [Example 214, N-{3-Fluoro-4-[6-methoxy-7-(4-morpholin-4-yl-butoxy)-quinolin-4-yloxy]-phenyl}-2-trifluoromethyl-benzenesulfonamide], with 102 to 104 °C.
In turn, `COc1cc2c(Oc3ccc(NS(=O)(=O)c4ccccc4C(F)(F)F)c(F)c3)ccnc2cc1OCCCN1CCCC(C)C1` (centres unmarked) [Example 215, N-(2-Fluoro-4-{6-methoxy-7-[3-(3-methyl-piperidin-1-yl)-propoxy]-quinolin-4-yloxy}-phenyl)-2-trifluoromethyl-benzenesulfonamide] showed a melting point of 125 to 126 °C.

(Values after US9169241B2, “Quinolinyloxyphenylsulfonamides” (Max-Planck-Gesellschaft Zur Forderung der Wissenschaften …, priority 2009, dated 2015).)
